Several values for one entry are separate records, joined by “and”; a condition that tells them apart may be missing. Equal values may be shown once.
Assays:
Assay type in all cases: cell-based, human
MCF-7 cells [1] = test: Transwell Matrigel invasion assay
Procedure: In order to evaluate whether 7m could suppress migration and invasion, the MCF-7 cell culture was performed by wound healing and Transwell Matrigel assay, respectively.
The upper chamber of the Transwell chamber was filled with cells resuspended in serum-free medium, 6 × 10^4 cells per well, 100 μl per well, and the lower chamber was added with 10% FBS-containing medium prepared with different concentrations of 7m. The cells were allowed to migrate for 48 h at 37°C in an atmosphere of 5% CO2. Then the migration of cells to the underside of the filter was determined by crystal violet staining.

HUVECs = test: Wound healing assay; details: 1, 5, 25 μΜ, 48 h
Procedure: A wound healing assay was, thus, performed to evaluate the capacity of 7m to inhibit cell motility. […] Then the invasion inhibitory activities of 7m were further detected using Transwell assay with HUVECs cells treated with 0, 1, 5, and 25 μΜ of 7m. In this assay, […] were seeded into upper chambers which were pre-coated with Matrigel matrix in order to evaluate the cellular invasion.
MCF-7 cells and HUVECs cells were grown in 24-well plates at a density of 1 × 10^6 cells per well for 24 h. Scratches were made in confluent monolayers by […] pipette tips. The media containing different concentrations of 7m were added to the Petri dishes. […] The migration distance of cells migrated to the wound area was measured manually.

[2] = test system: MCF-7, U937, HepG2 and MGC-803 cells; test: Antiproliferative activity, cancer cell panel (text summaries); details: U937, MCF7, HepG2; read-out: IC50 against three cancer cells
Procedure: The synthesized compounds were first evaluated for their cytotoxic effect on MCF-7 (human breast adenocarcinoma), U937 (histiocytic lymphoma cancer), HepG2 (human liver cancer) cells, and MGC-803 (human gastric cancer) using the SRB and CCK-8 assay. As reference compounds CA-4 and colchicine were included.
The primary tumor cells were purchased from a professional biomedical company. First, the primary tumor cells were incubated in a cell culture incubator at 37°C and 5% CO2. After the cell fusion reached 85%–95%, subculture was performed, and the tumor cells obtained at this time were used for subsequent related experiments. The CCK-8 method was used to inhibit the proliferation of U937 tumor cells, and the SRB method was used to inhibit the proliferation of MCF7 and HepG2 tumor cells.
Cells were distributed into 96-well plates with a density of 3 × 10^3–4 × 10^3 cells per well and incubated for 24 h in a 5% CO2 incubator at 37°C, followed by treatment with study compounds at different concentrations at 37°C for 72 h. One hundred microliters of 10% (w/v) trichloroacetic acid was added to each well, fixed at 4°C for 30 min, and dried at 65°C. Then 100 μl of 0.4% SRB was added to each well and stained on a shaker for 20 min at room temperature. The excess dye solution was washed with newly prepared 1% glacial acetic acid and dried at 65°C. One hundred fifty microliters of 10 mM unbuffered Trisbase was added to each well of the plate and shaken for 5 min to dissolve the dye. The microplate reader measured the optical density (OD) at a wavelength of 560 nm.
The cells in the logarithmic growth phase were seeded in a 96-well plate at 8,000/well, and the drug-containing medium and cell suspension were added to the well. Three wells were added with the blank medium as the blank group. The 96-well plate was incubated for 72 h in a 37°C, 5% CO2 incubator. The 10 μl of CCK-8 dye solution was added to each well, and the incubation continued for 3–4 h.

[3] = test system: microtubule network in MCF-7 cells; test: Immunofluorescent staining of microtubule network; details: 0.4 μM, 24 h
Procedure: Microtubule dynamics play an essential role in cancer cell growth. To examine whether compound 7m is able to disrupt microtubule dynamics, an immunofluorescent assay was carried out in MCF-7 cells.
Then the cells were washed with PBS three times. After permeabilization with 0.25% Triton X-100 for 5 min, the cells were washed with PBS three times and blocked in 5% bovine serum albumin (BSA) for 40 min. The cells were incubated with rabbit anti-α-tubulin primary antibody containing 5% BSA at room temperature for 5–6 h and washed with PBS three times. Cells were finally visualized under a fluorescence microscope.

MCF-7 cells [4] = test: Cell cycle analysis, flow cytometry with PI staining; details: for G2/M cells: 24 h; for G0/G1, single runs / G0/G1 AVERAGE / G2/M, single runs / S AVERAGE / S, single runs / G2/M AVERAGE: flowjo raw data
Procedure: It is known that tubulin inhibitors block the cell cycle in the G2/M phase because of microtubule depolymerization and cytoskeleton disruption. Therefore, the effects of 7m on cell cycle progression of MCF-7 cells were analyzed by flow cytometry with PI staining. MCF-7 cells were treated with different concentrations (0, 100, 200, and 400 nM) of compound 7m for 24 h and 200 nM 7m at different times (0, 6, 12, and 24 h), respectively. […] When the concentration was increased to 200 and 400 nM, cells of 47% and 56% G2/M phase arrest were observed, respectively. Similarly, this phenomenon occurred after treatment with 200 nM 7m from 0 to 24 h.
MCF-7 cells were seeded into six-well plates (5 × 10^5 cells/well) and incubated at 37°C in a humidified 5% CO2 incubator for 24 h, and then treated with or without compound 7m at indicated concentrations (100, 200, 400 nM). The collected cells were fixed by adding 70% of ethanol at −20°C for 12 h. The cells were then washed with PBS, incubated with […] of RNase at 37°C for 30 min, and stained with […] of propidium iodide for 15 min, and finally subjected to flow cytometry.

3-(benzofuran-6-yl)-2-methyl-1-(3,4,5-trimethoxyphenyl)prop-2-en-1-one [Compound 7m]
MCF-7 cells invasion (MCF-7 cells [1]): hinder the MCF-7 cells invasion in a dose-dependent manner
closure of wound scratching (HUVECs): obviously decreased the closure of wound scratching
IC50 [2]: 70 to 183 nM
effect on microtubule organization [3]: significant disruption of microtubule organization
G2/M cells (MCF-7 cells [4]; 100 nM): 26%
G0/G1, single runs (MCF-7 cells [4]; 100nM): 61.76 and 47.12
G0/G1 AVERAGE (MCF-7 cells [4]; 100nM): 54.44
G2/M, single runs (MCF-7 cells [4]; 100nM): 15.14 and 28.34
S AVERAGE (MCF-7 cells [4]; 100nM): 23.82
S, single runs (MCF-7 cells [4]; 100nM): 23.1 and 24.54
G0/G1, single runs (MCF-7 cells [4]; 200nM dose series): 40.1 and 25.72
G0/G1 AVERAGE (MCF-7 cells [4]; 200nM dose series): 32.91
G2/M, single runs (MCF-7 cells [4]; 200nM dose series): 40.78 and 56.03
S AVERAGE (MCF-7 cells [4]; 200nM dose series): 18.685
S, single runs (MCF-7 cells [4]; 200nM dose series): 19.12 and 18.25
G0/G1, single runs (MCF-7 cells [4]; 200nM, 6h): 55.81 and 61.73
G0/G1 AVERAGE (MCF-7 cells [4]; 200nM, 6h): 58.77
G2/M AVERAGE (MCF-7 cells [4]; 200nM, 6h): 29.28
G2/M, single runs (MCF-7 cells [4]; 200nM, 6h): 36.18 and 22.38
S AVERAGE (MCF-7 cells [4]; 200nM, 6h): 15.51
G0/G1, single runs (MCF-7 cells [4]; 200nM, 12h): 34.65 and 32.01
G0/G1 AVERAGE (MCF-7 cells [4]; 200nM, 12h): 33.33
G2/M AVERAGE (MCF-7 cells [4]; 200nM, 12h): 41.805
G2/M, single runs (MCF-7 cells [4]; 200nM, 12h): 44.73 and 38.88
S AVERAGE (MCF-7 cells [4]; 200nM, 12h): 25.405
S, single runs (MCF-7 cells [4]; 200nM, 12h): 23.93 and 26.88
G2/M cells (MCF-7 cells [4]; 200 nM, dose series (Fig 6A)): 47%
G0/G1, single runs (MCF-7 cells [4]; 200nM, 24h): 6.61 and 3.51
G0/G1 AVERAGE (MCF-7 cells [4]; 200nM, 24h): 5.06
G2/M AVERAGE (MCF-7 cells [4]; 200nM, 24h): 91.725
G2/M, single runs (MCF-7 cells [4]; 200nM, 24h): 93.1 and 90.35
S AVERAGE (MCF-7 cells [4]; 200nM, 24h): 5.79
G0/G1, single runs (MCF-7 cells [4]; 400nM): 16.1 and 15.39
G0/G1 AVERAGE (MCF-7 cells [4]; 400nM): 15.745
G2/M AVERAGE (MCF-7 cells [4]; 400nM): 67.3
G2/M, single runs (MCF-7 cells [4]; 400nM): 66.98 and 67.62
S AVERAGE (MCF-7 cells [4]; 400nM): 16.955
S, single runs (MCF-7 cells [4]; 400nM): 16.92 and 16.99

Reference: article PMC8652888, “Angiogenesis, Anti-Tumor, and Anti-Metastatic Activity of Novel α-Substituted Hetero-Aromatic Chalcone Hybrids as Inhibitors of Microtubule Polymerization” (Frontiers in Chemistry, 2021)
